According to patent US20240228506A1, “RIPK1 INHIBITORS AND METHODS OF USE” (Merck Sharp & Dohme LLC, priority 2021, published 2024):

Target: T1, GST-RIPK1 (recombinant GST-RIPK1 kinase domain (residues 1-327)) (Homo sapiens, UniProt Q13546)
T1 construct: recombinant GST-RIPK1 kinase domain (residues 1-327) enzyme; made in house; host or cells: baculovirus-transfected Sf21 insect cells
T1 sequence (Q13546 1-327): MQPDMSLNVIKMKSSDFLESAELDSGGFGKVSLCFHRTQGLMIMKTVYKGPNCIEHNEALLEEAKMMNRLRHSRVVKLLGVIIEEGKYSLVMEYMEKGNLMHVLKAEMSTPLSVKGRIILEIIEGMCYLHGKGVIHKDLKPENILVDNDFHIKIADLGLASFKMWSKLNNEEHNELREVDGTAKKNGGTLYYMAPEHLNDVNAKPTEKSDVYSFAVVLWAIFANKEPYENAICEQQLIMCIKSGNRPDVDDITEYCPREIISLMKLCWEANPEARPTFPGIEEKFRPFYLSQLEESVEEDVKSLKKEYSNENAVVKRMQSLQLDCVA
Test: RIPK1-ADP-Glo enzymatic assay
Type: biochemical
Details: 25 nM GST-RIPK1, 300 μM ATP, 3 μM dephosphorylated-MBP; 30 minutes pre-incubation, 150 minutes reaction; ten-point titration
Summary of the method: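 Ten-point 1:3 titrations from 100000 nM, 1% DMSO, were preincubated 30 min with 25 nM GST-RIPK1 (1-327) before starting with 300 μM ATP plus 3 μM dephosphorylated MBP; 150 min reaction. ADP-Glo luminescence measured ATP-to-ADP conversion; EC50 by four-parameter sigmoidal regression.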

Structure (SMILES) | IC50 [nM]
O=C(N1C[C@@H]2C[C@H]1c1cncc(C#CC3COC3)c1O2)C12CCC(F)(CC1)C2 [Compound 2-119, (4-fluorobicyclo[2.2.1]heptan-1-yl)((2S,5S)-9-(oxetan-3-ylethynyl)-2,3-dihydro-2,5-methanopyrido[3,4-f][1,4]oxazepin-4(5H)-yl)methanone] | 57
O=C(N1C[C@@H]2C[C@H]1c1cncc(C#CCC3(F)COC3)c1O2)C12CCC(F)(CC1)C2 [Compound 2-120, (4-fluorobicyclo[2.2.1]heptan-1-yl)((2S,5S)-9-(3-(3-fluorooxetan-3-yl)prop-1-yn-1-yl)-2,3-dihydro-2,5-methanopyrido[3,4-f][1,4]oxazepin-4(5H)-yl)methanone] | 95
CC1(C(=O)N2C[C@@H]3C[C@H]2c2cncc(C#Cc4ccc(F)cc4)c2O3)CCCC1 [Compound 2-121, ((2S,5S)-9-((4-Fluorophenyl)ethynyl)-2,3-dihydro-2,5-methanopyrido[3,4-f][1,4]oxazepin-4(5H)-yl)(1-methylcyclopentyl)methanone] | 34
O=C(N1C[C@@H]2C[C@H]1c1cncc(C#Cc3ccc(F)cc3)c1O2)C12CCC(F)(CC1)C2 [Compound 2-122, (4-fluorobicyclo[2.2.1]heptan-1-yl)((2S,5S)-9-((4-fluorophenyl)ethynyl)-2,3-dihydro-2,5-methanopyrido[3,4-f][1,4]oxazepin-4(5H)-yl)methanone] | 24
CC(F)(F)C(C)(C)C(=O)N1C[C@@H]2C[C@H]1c1cncc(C#Cc3ccc(F)cc3)c1O2 [Compound 2-123, 3,3-difluoro-1-((25,5S)-9-((4-fluorophenyl)ethynyl)-2,3-dihydro-2,5-methanopyrido[3,4-f][1,4]oxazepin-4(5H)-yl)-2,2-dimethylbutan-1-one] | 34
CC(C)(C(=O)N1C[C@@H]2C[C@H]1c1cc(F)cnc1O2)C(F)F [Compound 3-1, 3,3-Difluoro-1-((2S,5S)-7-fluoro-2,3-dihydro-2,5-methanopyrido[3,2-f][1,4]oxazepin-4(5H)-yl)-2,2-dimethylpropan-1-one] | 317
CC(F)(F)C(C)(C)C(=O)N1C[C@@H]2C[C@H]1c1cncnc1O2 [Compound 3-2, 1-((5S,8S)-7,8-dihydro-5,8-methanopyrimido[5,4-f][1,4]oxazepin-6(5H)-yl)-3,3-difluoro-2,2-dimethylbutan-1-one] | 1210
O=C(N1C[C@@H]2C[C@H]1c1cncnc1O2)C12CCC(F)(CC1)C2 [Compound 3-3, ((5S,8S)-7,8-Dihydro-5,8-methanopyrimido[5,4-f][1,4]oxazepin-6(5H)-yl)(4-fluorobicyclo[2.2.1]heptan-1-yl)methanone] | 377
Cc1ncc2c(n1)O[C@H]1C[C@@H]2N(C(=O)C23CCC(F)(CC2)C3)C1 [Compound 3-4, (4-fluorobicyclo[2.2.1]heptan-1-yl)((5S,8S)-2-methyl-7,8-dihydro-5,8-methanopyrimido[5,4-f][1,4]oxazepin-6(5H)-yl)methanone] | 1230
CC(C)(C(=O)N1C[C@@H]2C[C@H]1c1cncc(C#N)c1S2)C(F)F [Compound 4-1, (2S,5S)-4-(3,3-difluoro-2,2-dimethylpropanoyl)-2,3,4,5-tetrahydro-2,5-methanopyrido[3,4-f][1,4]thiazepine-9-carbonitrile] | 24
N#Cc1cncc2c1S[C@H]1C[C@@H]2N(C(=O)C23CCC(C(F)(F)F)(CC2)C3)C1 [Compound 4-2, (2S,5S)-4-(4-(trifluoromethyl)bicyclo[2.2.1]heptane-1-carbonyl)-2,3,4,5-tetrahydro-2,5-methanopyrido[3,4-f][1,4]thiazepine-9-carbonitrile] | 15
N#Cc1cncc2c1S[C@H]1C[C@@H]2N(C(=O)C23CCC(F)(CC2)C3)C1 [Compound 4-3, (2S,5S)-4-(4-fluorobicyclo[2.2.1]heptane-1-carbonyl)-2,3,4,5-tetrahydro-2,5-methanopyrido[3,4-f][1,4]thiazepine-9-carbonitrile] | 12
CC(C)(CC#N)C(=O)N1C[C@@H]2C[C@H]1c1cncc(C#N)c1S2 [Compound 4-4, (2S,5S)-4-(3-cyano-2,2-dimethylpropanoyl)-2,3,4,5-tetrahydro-2,5-methanopyrido[3,4-f][1,4]thiazepine-9-carbonitrile] | 42
CC(C)(C#N)C(=O)N1C[C@@H]2C[C@H]1c1cncc(C#N)c1S2 [Compound 4-5, (2S,5S)-4-(2-cyano-2-methylpropanoyl)-2,3,4,5-tetrahydro-2,5-methanopyrido[3,4-f][1,4]thiazepine-9-carbonitrile] | 99
N#Cc1cncc2c1S[C@H]1C[C@@H]2N(C(=O)C2(C#N)CCC2)C1 [Compound 4-6, (2S,5S)-4-(1-cyanocyclobutane-1-carbonyl)-2,3,4,5-tetrahydro-2,5-methanopyrido[3,4-f][1,4]thiazepine-9-carbonitrile] | 49
N#Cc1cncc2c1S[C@H]1C[C@@H]2N(C(=O)C2(C#N)CCCC2)C1 [Compound 4-7, (2S,5S)-4-(1-cyanocyclopentane-1-carbonyl)-2,3,4,5-tetrahydro-2,5-methanopyrido[3,4-f][1,4]thiazepine-9-carbonitrile] | 27
C[C@]1(C(=O)N2C[C@@H]3C[C@H]2c2cncc(C#N)c2S3)C[C@H](C#N)C1 [Compound 4-8, (2S,5S)-4-((1r,3S)-3-cyano-1-methylcyclobutane-1-carbonyl)-2,3,4,5-tetrahydro-2,5-methanopyrido[3,4-f][1,4]thiazepine-9-carbonitrile] | 117
N#Cc1cncc2c1OC[C@H]1CC[C@@H]2N1C(=O)C12CCC(F)(CC1)C2 [Compound 5-1, (3R,6S)-11-(4-Fluorobicyclo[2.2.1]heptane-1-carbonyl)-3,4,5,6-tetrahydro-2H-3,6-epiminooxocino[3,2-c]pyridine-10-carbonitrile] | 95
N#Cc1cncc2c1OC[C@H]1CC[C@@H]2N1C(=O)C12CCC(C(F)(F)F)(CC1)C2 [Compound 5-2, (3R,6S)-11-(4-(trifluoromethyl)bicyclo[2.2.1]heptane-1-carbonyl)-3,4,5,6-tetrahydro-2H-3,6-epiminooxocino[3,2-c]pyridine-10-carbonitrile] | 114
